# Assay results from patent US10987359B2, “Oxadiazepinone derivatives and methods of treating hepatitis B infections” (priority 2016, dated 2021).
# Test system: HBV
# Test: HBV replication inhibition assay (BDNA assay) in HepG2.2.15 cells
# Type: cell-based
# Settings: HBV replication assay (BDNA assay), HepG2.2.15 cells; read-out: DNA EC50
# In short: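 HepG2.2.15 cells with stably integrated HBV were treated with serially diluted compounds at 0.5% DMSO for 6 days, with medium and compound refreshed at day 3. Encapsidated HBV DNA from DNase-treated supernatant was quantified by branched DNA assay. EC50 came from % inhibition versus DMSO, fitted non-linearly.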
row,SMILES,EC50 [µM]
1,"C[C@@H]1Cc2nn3c(c2CN1C(=O)Nc1ccc(F)c(C#N)c1)C(=O)N(C)OC(CF)C3 (stereo in doubt) [Compound 087_E2, (4R*,9R)—N-(3-cyano-4-fluorophenyl)-4-(fluoromethyl)-2,9-dimethyl-1-oxo-1,4,5,8,9,11-hexahydropyrido[4′,3′:3,4]pyrazolo[5,1-d][1,2,5]oxadiazepine-10(2H)-carboxamide]",0.001 to 0.1
2,"C[C@@H]1Cc2nn3c(c2CN1C(=O)Nc1cc(Br)c(F)cc1F)C(=O)N(C)OC(CO)C3 (stereo in doubt) [Compound 089_E2, (4R*,9R)—N-(5-bromo-2,4-difluorophenyl)-4-(hydroxymethyl)-2,9-dimethyl-1-oxo-1,4,5,8,9,11-hexahydropyrido[4′,3′:3,4]pyrazolo[5,1-d][1,2,5]oxadiazepine-10(2H)-carboxamide]",0.001 to 0.1
3,"C[C@@H]1Cc2nn3c(c2CN1C(=O)Nc1cc(Cl)c(F)cc1F)C(=O)N(C)OC(CO)C3 (stereo in doubt) [Compound 090_E2, (4R*,9R)—N-(5-chloro-2,4-difluorophenyl)-4-(hydroxymethyl)-2,9-dimethyl-1-oxo-1,4,5,8,9,11-hexahydropyrido[4′,3′:3,4]pyrazolo[5,1-d][1,2,5]oxadiazepine-10(2H)-carboxamide]",0.001 to 0.1
4,"C[C@@H]1Cc2nn3c(c2CN1C(=O)Nc1ccc(F)c(Cl)c1F)C(=O)N(C)OC(CO)C3 (stereo in doubt) [Compound 091_E2, (4R*,9R)—N-(3-chloro-2,4-difluorophenyl)-4-(hydroxymethyl)-2,9-dimethyl-1-oxo-1,4,5,8,9,11-hexahydropyrido[4′,3′:3,4]pyrazolo[5,1-d][1,2,5]oxadiazepine-10(2H)-carboxamide]",0.001 to 0.1
5,"C[C@@H]1Cc2nn3c(c2CN1C(=O)Nc1ccc(F)c(Br)c1)C(=O)N(C)OC(CN(C)C)C3 (stereo in doubt) [Compound 094_D2, (4R*,9R)—N-(3-bromo-4-fluorophenyl)-4-((dimethylamino)methyl)-2,9-dimethyl-1-oxo-1,4,5,8,9,11-hexahydropyrido[4′,3′:3,4]pyrazolo[5,1-d][1,2,5]oxadiazepine-10(2H)-carboxamide]",0.001 to 0.1
6,"C[C@@H]1Cc2nn3c(c2CN1C(=O)Nc1ccnc(Br)c1F)C(=O)N(C)OC(CN(C)C)C3 (stereo in doubt) [Compound 095_D2, (4R*,9R)—N-(2-bromo-3-fluoropyridin-4-yl)-4-((dimethylamino)methyl)-2,9-dimethyl-1-oxo-1,4,5,8,9,11-hexahydropyrido[4′,3′:3,4]pyrazolo[5,1-d][1,2,5]oxadiazepine-10(2H)-carboxamide]",0.1 to 0.5
7,"C[C@@H]1Cc2nn3c(c2CN1C(=O)Nc1ccc(F)c(C#N)c1)C(=O)N(C)OC(CN(C)C)C3 (stereo in doubt) [Compound 096_D1, (4S*,9R)—N-(3-cyano-4-fluorophenyl)-4-((dimethylamino)methyl)-2,9-dimethyl-1-oxo-1,4,5,8,9,11-hexahydropyrido[4′,3′:3,4]pyrazolo[5,1-d][1,2,5]oxadiazepine-10(2H)-carboxamide]",0.1 to 0.5
8,"C[C@@H]1Cc2nn3c(c2CN1C(=O)Nc1ccc(F)c(C#N)c1)C(=O)N(C)OC(CN(C)C)C3 (stereo in doubt) [Compound 096_D2, (4R*,9R)—N-(3-cyano-4-fluorophenyl)-4-((dimethylamino)methyl)-2,9-dimethyl-1-oxo-1,4,5,8,9,11-hexahydropyrido[4′,3′:3,4]pyrazolo[5,1-d][1,2,5]oxadiazepine-10(2H)-carboxamide]",0.001 to 0.1
9,"Cc1cc(NC(=O)N2Cc3c(nn4c3C(=O)N(C)OC(CN(C)C)C4)C[C@H]2C)ccc1F (stereo in doubt) [Compound 097_D2, (4R*,9R)-4-((dimethylamino)methyl)-N-(4-fluoro-3-methylphenyl)-2,9-dimethyl-1-oxo-1,4,5,8,9,11-hexahydropyrido[4′,3′:3,4]pyrazolo[5,1-d][1,2,5]oxadiazepine-10(2H)-carboxamide]",0.001 to 0.1

# Same assay, conditions: Hepatitis B virus, HepG2.2.15, HBV replication assay (BDNA assay), HepG2.2.15 cells; read-out: DNA EC50
row,SMILES,EC50 [µM]
1,"C[C@@H]1Cc2nn3c(c2CN1C(=O)Nc1cc(Br)c(F)cc1F)C(=O)N(C)OC(CO)C3 (stereo in doubt) [Compound 089_E1, (4S*,9R)—N-(5-bromo-2,4-difluorophenyl)-4-(hydroxymethyl)-2,9-dimethyl-1-oxo-1,4,5,8,9,11-hexahydropyrido[4′,3′:3,4]pyrazolo[5,1-d][1,2,5]oxadiazepine-10(2H)-carboxamide]",0.001 to 0.1
2,"C[C@@H]1Cc2nn3c(c2CN1C(=O)Nc1cc(Cl)c(F)cc1F)C(=O)N(C)OC(CO)C3 (stereo in doubt) [Compound 090_E1, (4S*,9R)—N-(5-chloro-2,4-difluorophenyl)-4-(hydroxymethyl)-2,9-dimethyl-1-oxo-1,4,5,8,9,11-hexahydropyrido[4′,3′:3,4]pyrazolo[5,1-d][1,2,5]oxadiazepine-10(2H)-carboxamide]",0.001 to 0.1
3,"C[C@@H]1Cc2nn3c(c2CN1C(=O)Nc1ccc(F)c(Cl)c1F)C(=O)N(C)OC(CO)C3 (stereo in doubt) [Compound 091_E1, (4S*,9R)—N-(3-chloro-2,4-difluorophenyl)-4-(hydroxymethyl)-2,9-dimethyl-1-oxo-1,4,5,8,9,11-hexahydropyrido[4′,3′:3,4]pyrazolo[5,1-d][1,2,5]oxadiazepine-10(2H)-carboxamide]",0.001 to 0.1
4,"C[C@@H]1Cc2nn3c(c2CN1C(=O)Nc1ccc(F)c(Cl)c1)C(=O)N(C)OC(CN(C)C)C3 (stereo in doubt) [Compound 093_D2, (4R*,9R)—N-(3-chloro-4-fluorophenyl)-4-((dimethylamino)methyl)-2,9-dimethyl-1-oxo-1,4,5,8,9,11-hexahydropyrido[4′,3′:3,4]pyrazolo[5,1-d][1,2,5]oxadiazepine-10(2H)-carboxamide]",0.001 to 0.1
5,"C[C@@H]1Cc2nn3c(c2CN1C(=O)Nc1ccc(F)c(Br)c1)C(=O)N(C)OC(CN(C)C)C3 (stereo in doubt) [Compound 094_D1, (4S*,9R)—N-(3-bromo-4-fluorophenyl)-4-((dimethylamino)methyl)-2,9-dimethyl-1-oxo-1,4,5,8,9,11-hexahydropyrido[4′,3′:3,4]pyrazolo[5,1-d][1,2,5]oxadiazepine-10(2H)-carboxamide]",0.001 to 0.1
6,"C[C@@H]1Cc2nn3c(c2CN1C(=O)Nc1ccnc(Br)c1F)C(=O)N(C)OC(CN(C)C)C3 (stereo in doubt) [Compound 095_D1, (4S*,9R)—N-(2-bromo-3-fluoropyridin-4-yl)-4-((dimethylamino)methyl)-2,9-dimethyl-1-oxo-1,4,5,8,9,11-hexahydropyrido[4′,3′:3,4]pyrazolo[5,1-d][1,2,5]oxadiazepine-10(2H)-carboxamide]",0.1 to 0.5
7,"Cc1cc(NC(=O)N2Cc3c(nn4c3C(=O)N(C)OC(CN(C)C)C4)C[C@H]2C)ccc1F (stereo in doubt) [Compound 097_D1, (4 S*,9R)-4-((dimethylamino)methyl)-N-(4-fluoro-3-methylphenyl)-2,9-dimethyl-1-oxo-1,4,5,8,9,11-hexahydropyrido[4′,3′:3,4]pyrazolo[5,1-d][1,2,5]oxadiazepine-10(2H)-carboxamide]",0.001 to 0.1
8,"C[C@@H]1Cc2nn3c(c2CN1C(=O)Nc1ccc(F)c(C(F)(F)F)c1)C(=O)N(C)OC(CN(C)C)C3 (stereo in doubt) [Compound 098_D1, (4S*,9R)-4-((dimethylamino)methyl)-N-(4-fluoro-3-(trifluoromethyl)phenyl)-2,9-dimethyl-1-oxo-1,4,5,8,9,11-hexahydropyrido[4′,3′:3,4]pyrazolo[5,1-d][1,2,5]oxadiazepine-10(2H)-carboxamide]",0.001 to 0.1
